Measured values from patent publication US5506261A, “Substituted aryl- and heteroarylalkenyl-N-hydroxyurea inhibitors of leukotriene biosynthesis” (Abbott Laboratories, priority 1994, dated 1996).

Test system: calcium ionophore-induced LTB4 biosynthesis
Experiment: Inhibition of calcium ionophore (A23187)-induced LTB4 biosynthesis in human whole blood
Type: cell-based
Details: human heparinized whole blood; 15 min preincubation at 37° C.; A23187 8.3 μM, 30 minutes; LTB4 by radioimmunoassay; read-out: IC50, inhibition of leukotriene biosynthesis in human whole blood
Procedure: Inhibition of leukotriene biosynthesis was evaluated in an assay, involving calcium ionophore-induced LTB4 biosynthesis expressed human whole blood. Human heparinized whole blood was preincubated with test compounds or vehicle for 15 rain at 37° C. followed by calcium ionophore A23187 challenge (final concentration of 8.3 μM) and the reaction terminated after 30 minutes by adding two volumes of methanol containing prostaglandin B2 as an internal recovery standard. The methanol extract was analyzed for LTB4 using a commercially available radioimmunoassay.

| Structure (SMILES) | IC50 [nM] |
| --- | --- |
| C[C@H](/C=C\c1ccc(Cc2ccc(F)cc2)s1)N(O)C(N)=O [Example 1, Z-(R)-N-[3-(5-(4-Fluorophenylmethyl)-thien-2-yl)-1-methyl-2-propenyl]-N-hydroxyurea] | 40 |
| C[C@H](/C=C/c1ccc(Cc2ccc(F)cc2)s1)N(O)C(N)=O [Example 2, E-(R)-N-[3-(5-(4-Fluorophenylmethyl)-thien-2-yl)-1-methyl-2-propenyl]-N-hydroxyurea] | 180 |
